# Source: patent US20240318143A1, “POST-PROCESSING OF BIOLOGICAL SCAFFOLDS” (Lung Biotechnology PBC, priority 2023, published 2024)
# System: PAECs
# Assay: PAEC attachment and morphology after 24 hours on discs surface modified with peptides (FIGS. 8A-10G, FIJI analysis)
# Format: cell-based
# Details: 24 hours after seeding, surface modification at 2 μmol/cm^2 and 0.2 μmol/cm^2 (Tests 1-3)
# Protocol: For the experiments in FIGS. 7A-7S, 18 multi-wells were washed in 70% RA. The multi-wells were split into 6 groups of surface modification, which were P/G/A/B/F, PHSRNKRGD (SEQ ID NO: 9) (referred to as “PHK” in the figures), AG73, GFOGER (SEQ ID NO: 10), BM-Binder, and FN-Binder. Surface modification was conducted with the peptide solutions in Table 4. Peptides were prepared at 2 μmol/cm^2 concentrations for surface modification, but the actual concentration was adjusted for the thiol concentration. Following surface modification, wells were seeded with PAECs at a concentration of 625000 per cm^2. 24 hours after seeding, the wells were fix stained and imaged to quantify cell morphology. Model surface area was 10.1 cm^2.
# FIGS. 8A-10G provide data on experiments to compare cell seeding and proliferation on surfaces with single peptide or combination peptide modification at different concentrations, 2 μmol/cm^2 and 0.2 μmol/cm^2. The solutions used for peptide modification had the actual peptide concentrations noted in Table 5.
# (§1) FIGS. 8A-8G illustrate PAEC morphology after 24 hours on discs surface modified with various peptides at 2 μmol/cm^2 concentration according to Test 1. FIG. 8A are stained disk scans of PAECs cultured on 6 different surface modification peptides. FIGS. 8B-8G are graphs of FIJI analysis of circularity frequency distribution.
# as §1, with “9A-9G” for “8A-8G”, “concentration adjusted to the volume used in the PGABF′ condition” for “concentration”, “2.” for “1.”, “9A” for “8A”, “9B-9G” for “8B-8G”
# FIGS. 10A-10G illustrate PAEC morphology after 24 hours on discs surface modified with various peptides at 0.2 μmol/cm^2 concentration according to Test 3. FIG. 10A are stained disk scans of PAECs cultured on 6 different surface modification peptides. […] FIJI analysis is a method of quantifying stained disk scans. […]
row,Sequence,Cell attachment and morphology
1,"GCREKKRKRLQVQLSIRT [A, laminin-derived peptide recognized by syndecans]","some cells that were elongated but that did not have full stretching as seen in other test conditions, and an increase in rounder cells"
2,GCREKKTLQPVYEYMVGV [F],little cell attachment and those that were attached were round with little to no elongation
3,GCREISAFLGIPFAEPPMGPRRFLPPEPKKP [B],little cell attachment and those that were attached were round with little to no elongation
